Test results reported in a melting point compilation (Tetko et al.; mined from patent text by program, amines drawn as free bases though some values may be those of a salt).

| SMILES | melting point [°C] |
| --- | --- |
| CCCNC(=O)C1(CCCCc2ccc(NC(=O)c3ccccc3)cc2)c2ccccc2-c2ccccc21 | 171 to 173 |
| COc1ccc(C(C)=Cc2ccncc2)c2c1OC1(CCCC1)C2 | 85 to 87 |
| Cc1nc(-c2ccc(C(F)(F)F)cc2)sc1CCOc1ccc(CC(=O)O)cc1 | 128 to 130 |
| CCOCc1nc2c(N)nc3cc(OCCCCCCNC(C)=O)ccc3c2n1CC(C)(C)NC(=O)NC(C)C | 90 to 110 |
| O=C(O)Cc1ccc(CNC(=O)C2Cc3ccccc3N2S(=O)(=O)c2ccc(-c3cccc(C(F)(F)F)c3)cc2)c(F)c1 (stereo unspecified) | 99 to 105 |
| NC(=O)c1cc([N+](=O)[O-])c(N2CC2)c([N+](=O)[O-])c1 | 228 to 231 |
| CCCCCCC(C)(C)c1ccc(Br)c(OCc2ccccc2)c1 | 58 to 59 |
| C=C1CC2C(=CCC3(C)C2CC(C)C3(O)C(C)=O)C2(C)CCC(=O)C=C12 (stereo unspecified) | 157 to 158 |
| CN(C)C(=O)c1cccnc1SCc1ccccc1 | 61 to 63 |
| CCC(C)n1nc(C)n(-c2ccc(N3CCCN(C(=O)OC(C)(C)C)CC3)cc2)c1=O (stereo unspecified) | 119 to 120 |
| COc1ccc2c(c1)c(CC(C)NC(=O)C(F)(F)F)c1n2CCC1 (racemic) | 131 to 133 |
| CN1CCc2ccccc21 | 88 to 90 |
| CCCNC(=O)C(C)(C)Cc1ccc2c(c1)c(Cc1ccc(C(=O)NS(=O)(=O)c3ccccc3C)cc1OC)cn2CCC | 102 to 112 |
| CS(=O)(=O)c1ccc(-c2cc(Br)nc(C(F)(F)F)c2-c2ccc(F)cc2)cc1 | 188 to 189 |
| CC1(C)C(C(=O)O)N2C(=O)C(NC(=O)Cc3ccccc3)C2S1=O (stereo unspecified) | 143 to 145 |
| O=C(CC1CCCCC1)Nc1c(Cl)ccc2nc(CCCCc3nnn[nH]3)ccc12 | 192 to 195 |
| O=C(Nc1cccnc1NCc1ccc(Cl)cc1)c1ccccc1[N+](=O)[O-] | 145 to 147 |
| CCCC(C)(C)C[C@@H](CC(=O)OC(C)(C)C)C(=O)N1C(=O)O[C@H](c2ccccc2)[C@@H]1C | 83 to 85 |
| O=C(Cn1c(-c2ccc(Cl)cc2)ncc(NC(=O)OCc2ccccc2)c1=O)NC(Cc1ccccc1)C(=O)C(F)(F)F (stereo unspecified) | 199 to 201 |
| CCOC(=O)CSC1(SCC(=O)OCC)CCC2C3CCC4=CC(=O)C=CC4(C)C3(F)C(O)CC21C (stereo unspecified) | 125 to 127 |
| O=C1CCCN1[C@@H]1c2ccccc2OCC[C@H]1O (relative stereo) | 151 to 153 |
| NC(=S)NCCCCCC(=O)Nc1ccc(C(F)(F)F)cc1 | 140 to 142 |

| SMILES | melting point [°C] |
| --- | --- |
| CC12C=CC(=O)C=C1CCC1C2C(=O)CC2(C)C(C(=O)CO)CCC12 (stereo unspecified) | 203 to 206 |
| O=C1CCC(c2c[nH]c3ccccc23)CC1 | 123 to 125 |
| CC(C)(C)OC(=O)N[C@H](Cc1ccc(C(F)(F)F)cc1)[C@@H](O)c1ccc(Cl)nc1 (racemic) | 157 to 158 |
| CCNc1ccc2[nH]cc(C3CCN(C)CC3)c2n1 | 132 to 134 |
| CCCCCS(=O)(=O)NC(=O)/C=C/c1ccc(OCCOC)cc1OCC1CC1 | 64.8 to 66.3 |
| CC(=O)NC1(C)CCN(CCCOc2ccc(F)cc2)CC1 | 103 |
| COc1ccc2c(c1)CCC1C2CCC2(C)C(O)CCC12 (stereo unspecified) | 121 to 124 |
| O=C(Nc1ccc2[nH]c(=S)oc2c1)C(=O)N1CCC(Cc2ccccc2)CC1 | 203 |
| CCCOc1cc2ccccc2c2c(=O)c(-c3ccoc3)cn(C)c12 | 165 to 167 |
| CNC(=O)CCCCSc1nccc(NC(N)=NCC(F)(F)F)n1 | 148 to 150 |
| CN1CCN(C2=Nc3cc(Br)ccc3-n3ccc4cc(Br)cc2c43)CC1 | 158 to 159 |
| COC(=O)NC1CCc2ccsc2C1 (stereo unspecified) | 156 to 157 |
| CSc1cc(C)nc(SC)c1NC(=O)CCCCSc1nc2cccc(C(F)(F)F)c2o1 | 179 to 180 |
| Cc1cc(-n2ccnc2)c2cccc(OCc3c(Cl)ccc(S(=O)(=O)N4CCCC4)c3Cl)c2n1 | 193 |
| Cc1nc(-c2cccc3nc(N[C@@H]4CCc5ccccc54)ccc23)no1 | 105 |
| Cc1nc2c(Cc3ccccc3)cnn2c(=O)[nH]1 | 225 |
| CCOc1ccc(OCc2ccc(OCc3nc(-c4ccccc4)oc3C)cc2)c(CC(=O)O)c1 | 122 to 123 |
| CCCCN(Cc1ccc(-c2ccccc2S(=O)(=O)NC(C)(C)C)cc1)C(=O)Cl | 128 to 129 |
| CC(C)C(=O)N(Cc1ccccc1)c1nnn(Cc2ccccc2)n1 | 68 |
| COC(=O)C=Cc1ccc(OCc2nc(-c3ccccc3)oc2C)c(C(F)(F)F)c1 | 148 to 149 |
| CN1C(=O)C(C(=O)Nc2ccc(C(F)(F)F)cc2)S(=O)(=O)c2cc(F)ccc21 (stereo unspecified) | 146 to 148 |
| Cc1oc(-c2ccccc2)nc1COc1ccccc1C=CC=Cc1nnn[nH]1 | 192 to 193 |

| SMILES | melting point [°C] |
| --- | --- |
| CCCCCCCCCCCCCCCCSCC(CN)Oc1ccon1 (stereo unspecified) | 73 to 74 |
| CN(C)c1ccc(CN2C(=O)C3(COc4cc5c(cc43)OCCO5)c3ccccc32)nc1 (stereo unspecified) | 229 to 236 |
| CS(=O)(=O)c1ccc(-n2nc(C(F)(F)F)cc2-c2ccc(-c3ccoc3)cc2)cc1 | 165 to 166 |
| CCCCCCCNC(=O)Oc1ccc2c(c1)CCCN2C | 60 |
| CC1(C(=O)O)OCCC2=CC3=CC=CCC3=C21 (stereo unspecified) | 171 to 173 |
| COc1cc(CN2C(C(=O)O)=C(c3ccc4c(c3)OCO4)c3ccccc3S2(=O)=O)cc2c1OCO2 | 181 to 182 |
| CCCCC(=O)N(CCOC)Cc1ccc(-c2ccccc2-c2nnn[nH]2)cc1 | 120 to 122 |
| CC(C)Cc1ccc(C(C)C(=O)NCCCNC2=NCCN2)cc1 (stereo unspecified) | 155 to 168 |
| CCOC(=O)c1ccc(Cc2ccc(O)cc2)cn1 | 153 to 156 |
| CCOC(=O)OC12Oc3cc(C(C)C)ccc3C1(OC(=O)OCC)C(=O)c1ccccc12 (stereo unspecified) | 150 to 153 |
| Cc1ccc(CC(=O)NCc2cccc3c2C(=O)N(C2CCC(=O)NC2=O)C3=O)cc1F (stereo unspecified) | 148 to 150 |
| CN1CCC23CC(=O)CCC2(O)C1Cc1ccccc13 (stereo unspecified) | 143 to 144 |
| CCCCOc1ccc(S(C)(=O)=O)cc1-c1nc2c(CC)n(C3CN(C(C)C)C3)nc2c(=O)[nH]1 | 209 to 213 |
| CCCCOC(=O)Nc1cccc(C(=O)C=CN(C)C)c1 | 115 to 116 |
| COC(=O)c1cc(-c2ccncc2)sc1-c1ccncc1 | 133 to 135 |
| CCCCCCCCNC(=O)CCBr | 48 to 55 |
| CC1=C(C(=O)O)N2C(=O)C(NC(=O)Cc3ccc(CCl)cc3)C2SC1 (stereo unspecified) | 145 to 146 |
| O=C1NCCc2c(OCCCN3CCCCC3)cccc21 | 112 to 114 |
| COC(=O)Cc1ccc(CNC(=O)[C@@H](CCCNC(N)=N[N+](=O)[O-])NC(=O)C(c2ccccc2)c2ccccc2)cc1 | 158 to 160 |
| CN1CCN(C2CC3C4CCC5CC6OC6CC5(C)C4CCC3(C)C2O)CC1 (stereo unspecified) | 149 to 153 |

Now from value to compound:

| melting point [°C] | SMILES |
| --- | --- |
| 83 to 84 | ClCc1c(Cl)c(Cl)c(Cl)c(Cl)c1CCl |
| 97 to 100 | CCSC(=NC(C)=O)Nc1c(Cl)cccc1Cl |
| 156 to 158 | CC(C)(C)c1nc(-c2ccccc2)[nH]c1C(C)(C)C |
| 187 | Cc1noc(NS(=O)(=O)c2ccc(Nc3ccc([N+](=O)[O-])cc3[N+](=O)[O-])cc2)c1C |
| 169 to 170 | Cc1cc(C)c(-n2ccc3c(Cl)nnc(Cl)c32)c(C)c1 |
| 100 to 102 | COc1cc(C(=O)N(C)OC)c2oc(-c3ccc(OC)c(F)c3)cc2c1 |
| 202 to 204 | Nc1ccc(S(=O)(=O)c2cc(N)cc(Br)n2)cc1 |
| 85 to 87 | CCCC(C(=O)N(C)C)n1cc(Cl)c(-c2ccccc2)n1 (stereo unspecified) |
| 111 to 112 | N#CC1=C(Nc2cccc(Cl)c2)CCC1 |
| 98 to 100 | CCOC(=O)/C(=C/c1ccc(OC)c2c1CC(C)(C)O2)c1ccncc1 |
| 170 to 173 | CC(C)(C)N1C(=O)c2cc([N+](=O)[O-])cnc2C1=O |
| 145 to 146 | Nc1ncc(CCc2ccccc2)cc1[N+](=O)[O-] |
| 148 to 149 | COC(=O)c1cc2c(nc1Cl)CCCCC2 |
| 170 to 176 | CCOC(=O)c1ccc2c(c(C)nn2C)c1C#N |
| 99 to 102 | Cc1ccc(C(O)=C(C#N)C(=O)C(C)(C)C)c([N+](=O)[O-])c1 |
| 220 | CCS(=O)(=O)Nc1cc(-n2nc3n(c2=O)CCCC3)c(F)cc1C(N)=S |
| > 250 | O=c1[nH]cnc2cc(O)c(O)cc12 |
| 220 to 222 | Fc1ccc(Nc2ncnc3cnc(NCc4ccccn4)nc23)cc1Cl |
| 148 to 152 | N#CCCC1(C(N)=O)c2ccccc2-c2ccccc21 |

| melting point [°C] | SMILES |
| --- | --- |
| 86 to 88 | COC(=O)c1cc(N(C)C)cc(N(C)C)c1 |
| 162 to 164 | Oc1ccc(O)c(O)c1O |
| 58 to 62 | O=[N+]([O-])c1ccc(Oc2ccc(F)cc2F)cc1 |
| 192 to 194 | Cc1ccc(S(=O)(=O)Cc2c(-c3cc([N+](=O)[O-])cc([N+](=O)[O-])c3)nn(C)c2O)cc1 |
| 44 to 46 | Cc1cc(O)c(F)cc1Br |
| 257 to 260 | N#Cc1c(-c2cccc(N)c2)cc(-c2ccccc2O)nc1NC(=O)c1ccsc1 |
| 68 to 70 | OCc1nccc(N2CCCCC2)c1Cl |
| 296 to 299 | N=C1c2nc[nH]c2N(Cc2ccc(Cl)cc2)C2=NCCN12 |
| 98 to 104 | CC(=O)C(Cc1cc(O)c(O)c([N+](=O)[O-])c1)C(=O)C1CC1 (stereo unspecified) |
| 151 to 152 | COc1ccc2cc(Br)ccc2c1[N+](=O)[O-] |
| 206 to 209 | N#Cc1cc(N)c(Cl)cc1C#N |
| 82 to 85 | O=c1sc(=Nc2ccc(Cl)cc2)n2n1CCCC2 |
| 190 | COc1ccccc1Oc1c(Cl)nc(N)nc1Cl |
| 205 to 206 | Cc1cc(C(=O)Nc2ccc(SC(F)(F)F)c(Cl)c2)c(O)c(C23CC4CC(CC(C4)C2)C3)c1 |
| 155 to 157 | CC(C)/[N+]([O-])=C/c1ccc(O)cc1O |
| 166 to 168 | COc1cc2cc3c(Cl)ncnc3cc2cc1OCCN1CCOCC1 |
| 109 to 110 | COc1cc(Cl)cnc1OCC#Cc1ccc(Cl)cc1 |
| 214 to 216 | O=C(Nc1ccc(Cl)cc1)c1cc(Cl)c2cccnc2c1O |
